The test system of one assay is NUGC3 p53 Y220C. The assay is described as follows: Cell Proliferation Assay (CellTiter-Glo, CTG), NUGC3 p53 Y220C. The conditions noted are these: Homo sapiens, NUGC-3, 120 h, CellTiter-Glo, NUGC3 p53 Y220C, 5 days. It is filed as cell-based. Put shortly:
(§1)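 Tet-One inducible p53 Y220C or R273H constructs were stably introduced into NCI-H1299 by lentiviral transduction; NUGC3 was used as is. Cells (250-500 per well) were exposed to compound for 5 days, then CellTiter-Glo was added for 10 min at room temperature and IC50 was calculated from luminescence.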

The target in assay [1] is T1, p53 Y220C mutant protein (amino acid residues 94-293) (Homo sapiens, UniProt P04637, Y220C).
T1 construct: p53 Y220C mutant protein (amino acid residues 94-293)
Nature of the assay: Surface Plasmon Resonance (SPR) assay, Kd_kinetic. The assay is classed as binding. The conditions noted are these: SPR, kinetic KD, p53 Y220C; read-out: SPR P53 Y220C KD kinetic. A digest of the protocol: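 Kinetic dissociation constants derived by 1:1 model fit of SPR data acquired at 16 or 20 °C, pH 7.5 Tris/NaCl running buffer with 1% DMSO.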

A further assay relates to H1299 p53 R273H. The assay is described as follows: Cell Proliferation Assay (CellTiter-Glo, CTG), H1299 p53 R273H (NClH1299-inducible p53 R273H). It is filed as cell-based. To be noted: Homo sapiens, NCI-H1299, 120 h, CellTiter-Glo, H1299 p53 R273H, 5 days. Put shortly:
as §1

For a further assay, the target named is p53 Y220C (Homo sapiens, UniProt P04637, Y220C). Nature of the assay: Luciferase Reporter Assay (Luc), p53 response element, NClH1299 cells with inducible p53 Y220C. It is filed as cell-based. To be noted: luciferase reporter, NClH1299 inducible p53 Y220C, 6 hour; for Emax: 10 uM tool compound as positive control; for AC50: read-out: Luc P53 Y220C AC50. A digest of the protocol: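 24 h dox pre-induction (0.5 ug/mL), then 6 h compound; One-Glo luminescent read.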

The test system of the next assay is H1299 p53 Y220C. The assay is described as follows: Cell Proliferation Assay (CellTiter-Glo, CTG), H1299 p53 Y220C (NClH1299-inducible p53 Y220C). The assay is classed as cell-based. The conditions noted are these: Homo sapiens, NCI-H1299, 120 h, CellTiter-Glo, H1299 p53 Y220C, 5 days. A digest of the protocol: as §1
For orientation: In ATP-based viability assays light output follows the ATP content of the culture.

Assay [2] has as its target T1, p53 Y220C mutant protein (amino acid residues 94-293). The assay is described as follows: Thermal Shift Assay (TSA), dTM. The assay is classed as binding. To be noted: thermal shift; for ΔTm at 100 µM: 100 uM compound, read-out: TSA P53 Y220C dTM (100 uM). Put shortly: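 Differential scanning fluorimetry with Sypro Orange on 5 μM p53 Y220C residues 94-293, compound tested at 10 μM or 100 μM after 3 hours at 20 °C; buffer 20 mM HEPES, pH7.4, 100 mM NaCl, 1% DMSO.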

A word on the IC50: it is the concentration that inhibits the measured activity by half. Low readings indicate greater potency in that assay, high ones weaker potency in that assay. As usually defined, the Kd is the equilibrium constant for the complex coming apart. By Emax is commonly meant the size of the effect at its maximum, as opposed to the concentration needed. Usually AC50 stands for the concentration giving half of the maximal activity seen. Consider `CNC(=O)c1ccc(NCC#Cc2nc3c(N[C@@H]4CCN(C)C[C@@H]4F)cccn3c2CC(F)(F)F)c(Cl)c1` [Example 55, 3-chloro-4-{[3-(8-{[(3S,4R)-3-fluoro-1-methylpiperidin-4-yl]amino}-3-(2,2,2-trifluoroethyl)imidazo[1,2-a]pyridin-2-yl)prop-2-yn-1-yl]amino}-N-methylbenzamide], for which the IC50 in the assay on NUGC3 p53 Y220C is 750 to 1500 nM; in the assay with H1299 p53 R273H, ≥ 10000 nM; in the assay on H1299 p53 Y220C it was 750 to 1500 nM. In assay [1], the Kd lay in the range of 10 to 100 nM. Further, the Emax at p53 Y220C is > 90%. Further, on p53 Y220C, the AC50 is 750 to 1500 nM. Besides, in assay [2], the ΔTm at 100 µM was ≥ 10 °C.
In the case of `CNC(=O)c1ccc(NCC#Cc2nc3c(N[C@@H]4CCN(C)C[C@@H]4F)cccn3c2CC(F)(F)F)c(C#N)c1` [Example 56, 3-cyano-4-{[3-(8-{[(3S,4R)-3-fluoro-1-methylpiperidin-4-yl]amino}-3-(2,2,2-trifluoroethyl)imidazo[1,2-a]pyridin-2-yl)prop-2-yn-1-yl]amino}-N-methylbenzamide], the values for the IC50 in the assay on NUGC3 p53 Y220C, in the assay on H1299 p53 R273H and with H1299 p53 Y220C were > 3000 nM, ≥ 10000 nM and > 3000 nM, respectively. In assay [1], the Kd was 10 to 100 nM. For the same compound, the Emax on p53 Y220C was in the range of 80 to 90%. The concentration at half-maximal activity (AC50) at p53 Y220C was > 3000 nM. Further, the ΔTm at 100 µM in assay [2] is ≥ 10 °C.
In the case of `CNC(=O)c1ccc(NCC#Cc2nc3c(N[C@@H]4CCN(C)C[C@@H]4F)cccn3c2CC(F)(F)F)c(C2CC2)c1` [Example 57, 3-cyclopropyl-4-{[3-(8-{[(3S,4R)-3-fluoro-1-methylpiperidin-4-yl]amino}-3-(2,2,2-trifluoroethyl)imidazo[1,2-a]pyridin-2-yl)prop-2-yn-1-yl]amino}-N-methylbenzamide], the results for the IC50 with NUGC3 p53 Y220C, in the assay on H1299 p53 R273H and with H1299 p53 Y220C were > 3000 nM, ≥ 10000 nM and > 3000 nM, respectively. For the same compound, the Kd in assay [1] is 10 to 100 nM. Also, the Emax at p53 Y220C was in the range of 70 to 80%. Further, the AC50 on p53 Y220C was > 3000 nM. Besides, the ΔTm at 100 µM in assay [2] was ≥ 10 °C.
As for `CCc1cc(C(=O)NC)ccc1NCC#Cc1nc2c(N[C@@H]3CCN(C)C[C@@H]3F)cccn2c1CC(F)(F)F` [Example 58, 3-ethyl-4-{[3-(8-{[(3S,4R)-3-fluoro-1-methylpiperidin-4-yl]amino}-3-(2,2,2-trifluoroethyl)imidazo[1,2-a]pyridin-2-yl)prop-2-yn-1-yl]amino}-N-methylbenzamide], the IC50 in the assay on NUGC3 p53 Y220C is > 3000 nM; in the assay with H1299 p53 R273H, ≥ 10000 nM; in the assay with H1299 p53 Y220C, > 3000 nM. In addition, the Kd in assay [1] was < 10 nM. The same compound had an Emax on p53 Y220C of 70 to 80%. For the same compound, the concentration at half-maximal activity (AC50) at p53 Y220C is > 3000 nM. Moreover, the ΔTm at 100 µM in assay [2] fell in the range of 5 to 10 °C.
Consider `CCOc1cc(C(=O)NC)ccc1NCC#Cc1nc2c(N[C@@H]3CCN(C)C[C@@H]3F)cccn2c1CC(F)(F)F` [Example 59, 3-ethoxy-4-{[3-(8-{[(3S,4R)-3-fluoro-1-methylpiperidin-4-yl]amino}-3-(2,2,2-trifluoroethyl)imidazo[1,2-a]pyridin-2-yl)prop-2-yn-1-yl]amino}-N-methylbenzamide], for which the IC50 is 750 to 1500 nM in the assay on NUGC3 p53 Y220C, ≥ 10000 nM with H1299 p53 R273H and 750 to 1500 nM in the assay on H1299 p53 Y220C. Moreover, the Kd in assay [1] is < 10 nM. Besides, the Emax on p53 Y220C lay within 70 to 80%. At p53 Y220C, the AC50 lay in the range of 1500 to 3000 nM. Moreover, the ΔTm at 100 µM in assay [2] lay within 5 to 10 °C.
For `CNC(=O)c1ccc(NCC#Cc2nc3c(N[C@@H]4CCN(C)C[C@@H]4F)cccn3c2CC(F)(F)F)c(OC(F)F)c1` [Example 60, 3-(difluoromethoxy)-4-{[3-(8-{[(3S,4R)-3-fluoro-1-methylpiperidin-4-yl]amino}-3-(2,2,2-trifluoroethyl)imidazo[1,2-a]pyridin-2-yl)prop-2-yn-1-yl]amino}-N-methylbenzamide], the IC50 is 1500 to 3000 nM in the assay with NUGC3 p53 Y220C, ≥ 10000 nM with H1299 p53 R273H and 1500 to 3000 nM in the assay on H1299 p53 Y220C. Also, in assay [1], the Kd is < 10 nM. This compound also came in with an Emax at p53 Y220C of 70 to 80%. Besides, the AC50 on p53 Y220C is > 3000 nM. Moreover, the ΔTm at 100 µM in assay [2] is ≥ 10 °C.
Take `CNC(=O)c1ccc(NCC#Cc2nc3c(N[C@@H]4CCN(C)C[C@@H]4F)cccn3c2CC(F)(F)F)c(OCC(F)(F)F)c1` [Example 61, 4-{[3-(8-{[(3S,4R)-3-fluoro-1-methylpiperidin-4-yl]amino}-3-(2,2,2-trifluoroethyl)imidazo[1,2-a]pyridin-2-yl)prop-2-yn-1-yl]amino}-N-methyl-3-(2,2,2-trifluoroethoxy)benzamide]: the figures for the concentration for half-maximal inhibition (IC50) in the assay on NUGC3 p53 Y220C, with H1299 p53 R273H and with H1299 p53 Y220C were 750 to 1500 nM, ≥ 10000 nM and < 750 nM, respectively. Besides, the Kd in assay [1] fell in the range of 10 to 100 nM. At p53 Y220C, this compound yielded an Emax of 80 to 90%. Also, on p53 Y220C, the AC50 lay within 750 to 1500 nM. The ΔTm at 100 µM in assay [2] was 5 to 10 °C.
Consider `CNC(=O)c1ccc(NCC#Cc2nc3c(N[C@@H]4CCN(C)C[C@@H]4F)cccn3c2CC(F)(F)F)c(OCCOC)c1` [Example 62, 4-{[3-(8-{[(3S,4R)-3-fluoro-1-methylpiperidin-4-yl]amino}-3-(2,2,2-trifluoroethyl)imidazo[1,2-a]pyridin-2-yl)prop-2-yn-1-yl]amino}-3-(2-methoxyethoxy)-N-methylbenzamide], for which the IC50 in the assay on NUGC3 p53 Y220C was 750 to 1500 nM; in the assay with H1299 p53 R273H it was ≥ 10000 nM; in the assay on H1299 p53 Y220C, 750 to 1500 nM. Also, the Kd in assay [1] was < 10 nM. The same compound had an Emax on p53 Y220C of 70 to 80%. In addition, the AC50 at p53 Y220C is 750 to 1500 nM. Moreover, the ΔTm at 100 µM in assay [2] is ≥ 10 °C.
Turning to `COc1cc(S(N)(=O)=O)ccc1NCC#Cc1nc2c(N[C@@H]3CCN(C)C[C@@H]3F)cccn2c1CC(F)(F)F` [Example 63, 4-{[3-(8-{[(3S,4R)-3-fluoro-1-methylpiperidin-4-yl]amino}-3-(2,2,2-trifluoroethyl)imidazo[1,2-a]pyridin-2-yl)prop-2-yn-1-yl]amino}-3-methoxybenzenesulfonamide], the values for the IC50 in the assay on NUGC3 p53 Y220C, in the assay on H1299 p53 R273H and in the assay with H1299 p53 Y220C were 750 to 1500 nM, ≥ 10000 nM and 750 to 1500 nM, respectively. For the same compound, the Kd in assay [1] lay in the range of 10 to 100 nM. Besides, the Emax on p53 Y220C lay in the range of 70 to 80%. The AC50 at p53 Y220C is 1500 to 3000 nM. The ΔTm at 100 µM in assay [2] was ≥ 10 °C.
`CNS(=O)(=O)c1ccc(NCC#Cc2nc3c(N[C@@H]4CCN(C)C[C@@H]4F)cccn3c2CC(F)(F)F)c(OC)c1` [Example 64, 4-{[3-(8-{[(3S,4R)-3-fluoro-1-methylpiperidin-4-yl]amino}-3-(2,2,2-trifluoroethyl)imidazo[1,2-a]pyridin-2-yl)prop-2-yn-1-yl]amino}-3-methoxy-N-methylbenzenesulfonamide]: the IC50 in the assay with NUGC3 p53 Y220C is < 750 nM; with H1299 p53 R273H, 8000 to 10000 nM; in the assay with H1299 p53 Y220C, < 750 nM. Besides, the Kd in assay [1] was < 10 nM. Further, the Emax at p53 Y220C lay within 70 to 80%. For the same compound, the AC50 on p53 Y220C fell in the range of 750 to 1500 nM. Further, the ΔTm at 10 µM in assay [2] (10 uM compound, read-out: TSA P53 Y220C dTM (10 uM)) is ≥ 10 °C. Further, the ΔTm at 100 µM in assay [2] was ≥ 10 °C.
With `COc1cc(S(=O)(=O)N(C)C)ccc1NCC#Cc1nc2c(N[C@@H]3CCN(C)C[C@@H]3F)cccn2c1CC(F)(F)F` [Example 65, 4-{[3-(8-{[(3S,4R)-3-fluoro-1-methylpiperidin-4-yl]amino}-3-(2,2,2-trifluoroethyl)imidazo[1,2-a]pyridin-2-yl)prop-2-yn-1-yl]amino}-3-methoxy-N,N-dimethylbenzenesulfonamide], the IC50 is 750 to 1500 nM in the assay with NUGC3 p53 Y220C, 5000 to 8000 nM with H1299 p53 R273H and 750 to 1500 nM with H1299 p53 Y220C. Besides, in assay [1], the Kd lay in the range of 10 to 100 nM. The same compound displayed an Emax on p53 Y220C of 70 to 80%. Further, the AC50 at p53 Y220C is < 750 nM. Besides, the ΔTm at 100 µM in assay [2] was ≥ 10 °C.
As for `CCS(=O)(=O)c1ccc(NCC#Cc2nc3c(N[C@@H]4CCN(C)C[C@@H]4F)cccn3c2CC(F)(F)F)c(OC)c1` [Example 66, (3S,4R)—N-[2-(3-{[4-(ethanesulfonyl)-2-methoxyphenyl]amino}prop-1-yn-1-yl)-3-(2,2,2-trifluoroethyl)imidazo[1,2-a]pyridin-8-yl]-3-fluoro-1-methylpiperidin-4-amine], the IC50 is < 750 nM in the assay on NUGC3 p53 Y220C, 5000 to 8000 nM with H1299 p53 R273H and < 750 nM in the assay on H1299 p53 Y220C. Also, in assay [1], the Kd was < 10 nM. At p53 Y220C, this compound yielded an Emax of 70 to 80%. For the same compound, the AC50 at p53 Y220C is < 750 nM. In assay [2], the ΔTm at 100 µM is ≥ 10 °C.
